Data taken from patent publication US9309236B2, “PI-kinase inhibitors with broad spectrum anti-infective activity” (The Board of Trustees of the Leland Stanford Junior …, priority 2011, dated 2016).

Tested on: PI(4)P and PI(4,5)P2 in Huh7.5 cells
Assay: Immunofluorescence of intracellular PI(4)P and PI(4,5)P2 pools in Huh7.5 cells
Type: cell-based
Protocol: FIG. 1 illustrates that the exemplary compound PT423 decreases PI(4)P (top panels) and PI(4,5)P2 (bottom panels) in a dose-dependent manner. Left panels: uninfected Huh7.5 cells; right panels: HCV-infected Huh7.5 cells. Cells were treated with the indicated concentrations of PT423 or vehicle control, and analyzed by immunofluorescence with antibodies to PI(4)P or PI(4,5)P2 (green) along with an antibody to calnexin (red) to control for ER morphology.
To further confirm its mechanism of action the effect of PT423 on PI-4 levels was determined in cells using immunofluorescence to monitor the intracellular localized pools of PI-4. The effect of PT423 on intracellular pools of PIP2 was tested, which were predicted to be similarly sensitive to inhibition using PT423.
FIG. 1 illustrates that PT423 decreases PI(4)P (top panels) and PI(4,5)P2 (bottom panels) in a dose-dependent manner. Left panels: uninfected Huh7.5 cells; right panels: HCV-infected Huh7.5 cells. Cells were treated with the indicated concentrations of PT423 or vehicle control, and analyzed by immunofluorescence with antibodies to PI(4)P or PI(4,5)P2 (green) along with an antibody to calnexin (red) to control for ER morphology.

[1] = uninfected and HCV-infected Huh7.5 cells, immunofluorescence, FIG. 1

COc1ccc(-c2sc(NC(=O)C3CCCC3)nc2C)cc1S(=O)(=O)Nc1ccc(O)cc1 [PT423]
effect on ER (calnexin co-staining) (control for non-specific effects on the cells): absence of any detectable effects on the ER
effect on PI-4 (PI(4)P) levels [1]: dose-dependent decrease
effect on PIP2 (PI(4,5)P2) levels [1]: dose-dependent decrease
